The assay deals with Casein kinase II subunit alpha (Homo sapiens, UniProt P68400). Kind of assay: CK2α Inhibition Assay.
Casein kinase II subunit alpha, sequence (P68400 whole entry): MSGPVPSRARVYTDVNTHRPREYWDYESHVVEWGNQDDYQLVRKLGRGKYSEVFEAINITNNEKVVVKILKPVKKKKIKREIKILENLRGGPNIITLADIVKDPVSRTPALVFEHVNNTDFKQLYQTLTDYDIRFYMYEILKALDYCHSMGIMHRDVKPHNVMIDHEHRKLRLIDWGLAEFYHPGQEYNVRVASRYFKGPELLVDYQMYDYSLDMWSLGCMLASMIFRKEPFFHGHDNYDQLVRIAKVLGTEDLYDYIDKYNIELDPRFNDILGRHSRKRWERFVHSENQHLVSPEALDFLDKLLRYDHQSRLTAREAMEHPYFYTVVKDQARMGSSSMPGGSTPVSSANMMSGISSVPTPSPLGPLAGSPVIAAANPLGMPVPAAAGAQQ
Method: The activity of CK2α was tested using P81 filter isotopic assay, as it was described earlier [Łukowska-Chojnacka et al., Bioorg.
Turning to `[N-]=[N+]=NCCn1cnc2c(Br)c(Br)c(Br)c(Br)c21` [1-(2-Azidoethyl)-4,5,6,7-tetrabromo-1H-benzimidazole (3)], the Ki worked out at 2340 nM. `[N-]=[N+]=NCCCn1cnc2c(Br)c(Br)c(Br)c(Br)c21` [1-(3-Azidopropyl)-4,5,6,7-tetrabromo-1H-benzimidazole (5)] had a Ki of 3280 nM.

Take `O=C(O)c1cn(CCn2cnc3c(Br)c(Br)c(Br)c(Br)c32)nn1` [1-[2-(4,5,6,7-Tetrabromo-1H-benzimidazol-1-yl)ethyl]-1H-1,2,3-triazole-4-carboxylic acid (7)]: the affinity corresponds to a Ki of 1960 nM. Regarding `O=C(O)c1cn(CCCn2cnc3c(Br)c(Br)c(Br)c(Br)c32)nn1` [1-[3-(4,5,6,7-Tetrabromo-1H-benzimidazol-1-yl)propyl]-1H-1,2,3-triazole-4-carboxylic acid (10)], the Ki is 910 nM.

As to `O=C(O)c1cn(CCCn2nc3c(Br)c(Br)c(Br)c(Br)c3n2)nn1` [1-[3-(4,5,6,7-Tetrabromo-2H-benzotriazol-2-yl)propyl]-1H-1,2,3-triazole-4-carboxylic acid (22)], affinity was put at a Ki of 2470 nM. For the molecule `O=C(O)CCc1cn(CCn2cnc3c(Br)c(Br)c(Br)c(Br)c32)nn1` [3-{1-[2-(4,5,6,7-Tetrabromo-1H-benzimidazol-1-yl)ethyl]-1H-1,2,3-triazole-4-yl}propanoic acid (8)], the Ki stood at 5370 nM. As for `O=C(O)CCc1cn(CCCn2cnc3c(Br)c(Br)c(Br)c(Br)c32)nn1` [3-{1-[3-(4,5,6,7-Tetrabromo-1H-benzimidazol-1-yl)propyl]-1H-1,2,3-triazole-4-yl}propanoic acid (11)], the Ki amounted to 2370 nM.

`O=C(O)CCc1cn(CCCn2nc3c(Br)c(Br)c(Br)c(Br)c3n2)nn1` [3-{1-[3-(4,5,6,7-Tetrabromo-2H-benzotriazol-2-yl)propyl]-1H-1,2,3-triazole-4-yl}propanoic acid (23)] yielded a Ki of 3160 nM. In turn, `Cc1c(Br)c(Br)c(Br)c2nc[nH]c12` [4,5,6-tribromo-7-methyl-1H-benzimidazole (13)] had a Ki of 2260 nM.

The Ki is a measure of affinity in units of concentration, obtained from inhibition or displacement. Low readings indicate a stronger hold on the target, high ones a looser hold on the target.

The record behind these values is BindingDB's records for doi:10.1016/j.bioorg.2017.02.017 (Warsaw University of Technology, 2017).
